The values below come from paper PMC11844072, “Novel 5,6-dichlorobenzimidazole derivatives as dual BRAFWT and BRAFV600E inhibitors: design, synthesis, anti-cancer activity and molecular dynamics simulations” (BMC Chemistry, 2025).

One test relates to UACC-62. Briefly: NCI 60 single concentration growth inhibition. The settings on record: UACC-62, Melanoma; for GI%: 10 μM. Type of test: cell-based, human. Put shortly: (§1)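 For the single-dose testing, a 10 µM concentration was applied for 48 h. Adherent lines were fixed with cold TCA, stained with SRB and read at 515 nm, and the result was reported as percent growth versus untreated cells.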

Another test concerns CCRF-CEM. Briefly: NCI 60 single concentration growth inhibition. The following applies: Leukemia; for GI%: 10 μM. It is filed as cell-based, human. Put shortly:
as §1

The test system of a further test is HL-60(TB). Briefly: NCI 60 single concentration growth inhibition. The settings on record: Leukemia; for GI%: 10 μM. Type of test: cell-based, human. In outline: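 Cells are plated and left 24 h, and a time-zero plate is fixed at drug addition. Compound is then added for 48 h, the cells are fixed in cold TCA and stained with 0.4% SRB, and bound dye is solubilised in 10 mM Tris for reading at 515 nm.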

The next test deals with OVCAR-5. Briefly: NCI 60 single concentration growth inhibition. Type of test: cell-based, human. The following applies: OVCAR-5, Ovarian cancer; for GI%: 10 μM. Put shortly:
as §1

Another test has as its system CAKI-1. Briefly: NCI 60 single concentration growth inhibition. Type of test: cell-based, human. The settings on record: CAKI-1, Renal cancer; for GI%: 10 μM. In outline:
as §1

A further test deals with MDA-MB-435. Briefly: NCI 60 single concentration growth inhibition. Type of test: cell-based, human. The following applies: MDA-MB-435, Melanoma; for GI%: 10 μM. In outline:
as §1

The subject of the next test is SK-MEL-5. Briefly: NCI 60 single concentration growth inhibition. Type of test: cell-based, human. The following applies: SK-MEL-5, Melanoma; for GI%: 10 μM. In outline: as §1
In a further test the test system is BT-549. Briefly: NCI 60 single concentration growth inhibition. It is filed as cell-based, human. The following applies: BT-549, Breast cancer; for GI%: 10 μM. In outline:
as §1

Another test deals with EKVX. Briefly: NCI 60 single concentration growth inhibition. Type of test: cell-based, human. The settings on record: Non-small cell lung cancer; for GI%: 10 μM. In outline: as §1
In the next test the test system is SNB-19. Briefly: NCI 60 single concentration growth inhibition. It is filed as cell-based, human. The settings on record: SNB-19, CNS cancer; for GI%: 10 μM. How it is done:
(§2) The synthesized dichlorobenzimidazoles 10a–p were assayed for their influence on divers cancer cell lines according to the method presented in the Additional file A.
(§3) 5. Screening of cytotoxic activity against a panel of sixty human tumor cell lines
(§4) The selected compounds by NCI were evaluated for their anticancer activity in a two-stage process. First, these compounds were screened against the full NCI 60 cell lines panel at a single high dose of 10 µM. Then, the output from the single dose screen is reported as a mean graph. […]
(§5) Assay protocol. The human tumor cell lines of the cancer screening panel are grown in RPMI 1640 medium containing 5% fetal bovine serum and 2 mM L-glutamine. For a typical screening experiment, cells are inoculated into 96 well microtiter plates in 100 µL at plating densities ranging from 5000 to 40,000 cells/well depending on the doubling time of individual cell lines. After cell inoculation, the microtiter plates are incubated at 37 °C, 5% CO 2, 95% air and 100% relative humidity for 24 h prior to addition of the experimental drugs.
(§6) After 24 h, two plates of each cell line are fixed in situ with TCA, to represent a measurement of the cell population for each cell line at the time of drug addition (Tz). The experimental drugs are solubilized in dimethyl sulfoxide at 400-fold the desired final maximum test concentration and stored frozen prior to use. At the time of drug addition, an aliquot of frozen concentrate is thawed and diluted to twice the desired final maximum test concentration with complete medium containing 50 µg/mL gentamicin. Additional four, 10-fold or ½ log serial dilutions are made to provide a total of five drug concentrations plus control.
(§7) Aliquots of […] of these different drug dilutions are added to the appropriate microtiter wells already containing […] of medium, resulting in the required final drug concentrations.
(§8) Following drug addition, the plates are incubated for an additional 48 h at 37 °C, 5% CO 2, 95% air, and 100% relative humidity. For adherent cells, the assay is terminated by the addition of cold TCA.
(§9) Cells are fixed in situ by the gentle addition of 50 µL of cold 50% (w/v) TCA (final concentration, 10% TCA) and incubated for 60 min at 4 °C. The supernatant is discarded, and the plates are washed five times with tap water and air dried. Sulforhodamine B (SRB) solution ([…]) at 0.4% (w/v) in 1% acetic acid is added to each well, and plates are incubated for 10 min at room temperature. After staining, unbound dye is removed by washing five times with 1% acetic acid and the plates are air dried. Bound stain is subsequently solubilized with 10 mM trizma base, and the absorbance is read on an automated plate reader at a wavelength of 515 nm. For suspension cells, the methodology is […]
(§10) the same except that the assay is terminated by fixing settled cells at the bottom of the wells by gently adding 50 µl of 80% TCA (final concentration, 16% TCA). Using the seven absorbance measurements [time zero, (Tz), control growth, (C), and test growth in the presence of drug at the five concentration levels (Ti)], the percentage growth is calculated at each of the drug concentrations […]
(§11) Percentage growth inhibition is calculated as: [(Ti Tz)/(C–Tz)] x 100 for concentrations for which Ti>/=Tz and [(Ti-Tz)/Tz] x 100 for concentrations for which Ti < Tz. […]
(§12) Results for each compound were reported as a mean graph of the percent growth of the treated cells when compared to the untreated control cells. There after obtaining the results for one dose assay, analysis of historical Development Therapeutics Programme (DTP) was performed and compounds which satisfies predetermined threshold inhibition criteria is selected for NCI full panel 5 dose assay.

The subject of another test is OVCAR-4. Briefly: NCI 60 single concentration growth inhibition. It is filed as cell-based, human. The following applies: OVCAR-4, Ovarian cancer; for GI%: 10 μM. The procedure:
as §2, §3, §4, §5, §6, §7, §8, §9, §10, §11, §12

The test system of a further test is HT29. Briefly: NCI 60 single concentration growth inhibition. Type of test: cell-based, human. The settings on record: for GI%: HT29, Colon cancer, 10 μM. How it is done:
as §2, §3, §4, §5, §6, §7, §8, §9, §10, §11, §12

The subject of the next test is TK-10. Briefly: NCI 60 single concentration growth inhibition. It is filed as cell-based, human. The settings on record: TK-10, Renal cancer; for GI%: 10 μM. The procedure:
as §2, §3, §4, §5, §6, §7, §8, §9, §10, §11, §12

Another test concerns NCI-H460. Briefly: NCI 60 single concentration growth inhibition. Type of test: cell-based, human. The settings on record: NCI-H460, Non-small cell lung cancer; for GI%: 10 μM. How it is done: as §2, §3, §4, §5, §6, §7, §8, §9, §10, §11, §12
The subject of the next test is DU-145. Briefly: NCI 60 single concentration growth inhibition. The settings on record: DU-145, Prostate cancer; for GI%: 10 μM. It is filed as cell-based, human. The procedure:
as §2, §3, §4, §5, §6, §7, §8, §9, §10, §11, §12

In a further test the test system is OVCAR-3. Briefly: NCI 60 single concentration growth inhibition. It is filed as cell-based, human. The settings on record: OVCAR-3, Ovarian cancer; for GI%: 10 μM. The procedure: as §2, §3, §4, §5, §6, §7, §8, §9, §10, §11, §12
For a further test, the system named is HOP-92. Briefly: NCI 60 single concentration growth inhibition. Type of test: cell-based, human. The following applies: HOP-92, Non-small cell lung cancer; for GI%: 10 μM. The procedure: as §2, §3, §4, §5, §6, §7, §8, §9, §10, §11, §12
For test [1], the system named is NCI 60 cancer cell line panel. Briefly: NCI 60 single concentration growth inhibition, panel mean. It is filed as cell-based. The settings on record: Homo sapiens, mean over NCI 60 panel, read-out: Mean GI%. The procedure: as §2, §3, §4
at five different minimal concentrations.
as §5, §6, §7, §8, §9, §10
Percentage growth inhibition is calculated as: [(Ti Tz)/(C–Tz)] x 100 for concentrations for which Ti>/=Tz and [(Ti-Tz)/Tz] x 100 for concentrations for which Ti < Tz.
Three dose response parameters are calculated for each experimental agent. Growth […]
concentration resulting in a 50% reduction in the net protein increase (as measured by SRB staining) in control cells during the drug incubation. The drug concentration resulting in total growth inhibition (TGI) is calculated from Ti = Tz. […]
reduction in the measured protein at the end of the drug treatment as compared to that at the beginning) indicating a net loss of cells following treatment is calculated from [(Ti–Tz)/Tz] x 100 =
_50. Values are calculated for each of these three parameters if the level of activity is reached; […]

As for “2-(4-((2-(2-(5,6-Dichloro-2-(4-methoxyphenyl)-1H-benzo[d]imidazol-1-yl)acetyl)hydrazono)methyl) -2-methoxyphenoxy)acetic acid [Compound 10m]”, the GI% is listed as 6.42% with UACC-62; “– (GI% < 5%)” with CCRF-CEM; “– (GI% < 5%)” in the test on HL-60(TB); “– (GI% < 5%)” with OVCAR-5; “– (GI% < 5%)” with CAKI-1; “– (GI% < 5%)” with MDA-MB-435. In addition, the GI% entry with SK-MEL-5, in the test with BT-549, in the test on EKVX, in the test on SNB-19, with OVCAR-4 and in the test with HT29 was “– (GI% < 5%)” throughout. The GI% result in the test on TK-10, with NCI-H460, with DU-145, with OVCAR-3 and with HOP-92 was “– (GI% < 5%)” throughout.
For “2-(5-((2-(2-(5,6-Dichloro-2-(4-methoxyphenyl)-1H-benzo[d]imidazol-1-yl)acetyl)hydrazono)methyl)-2-methoxyphenoxy)acetic acid [Compound 10n]”, the GI% in the test on UACC-62 is reported as 9.71%; in the test on CCRF-CEM it was “– (GI% < 5%)”; with HL-60(TB), “– (GI% < 5%)”; in the test on OVCAR-5, “– (GI% < 5%)”; in the test on CAKI-1, “– (GI% < 5%)”; in the test on MDA-MB-435 it was “– (GI% < 5%)”. Besides, the GI% result in the test on SK-MEL-5, with BT-549, in the test with EKVX, in the test with SNB-19, with OVCAR-4 and in the test on HT29 was “– (GI% < 5%)” throughout. Further, the GI% result with TK-10, with NCI-H460, in the test on DU-145, with OVCAR-3 and in the test with HOP-92 was “– (GI% < 5%)” each time.
In the case of “3-(4-((2-(2-(5,6-Dichloro-2-(4-methoxyphenyl)-1H-benzo[d]imidazol-1-yl)acetyl)hydrazono)methyl)phenoxy)propanoic acid [Compound 10i]”, the GI% in the test with UACC-62 was 10.17%; with CCRF-CEM it was 10.70%; in the test with HL-60(TB), “– (GI% < 5%)”; in the test on OVCAR-5, “– (GI% < 5%)”; in the test with CAKI-1, 10.19%; in the test on MDA-MB-435, 7.59%. In addition, the GI% in the test with SK-MEL-5 was 14.39%; in the test on BT-549 it was 11.38%; with EKVX it was 20.53%; in the test with SNB-19 it was 5.79%; with OVCAR-4 it was “– (GI% < 5%)”; with HT29, “– (GI% < 5%)”. Further, the GI% result in the test with TK-10 is “– (GI% < 5%)”; in the test on NCI-H460 it was “– (GI% < 5%)”; in the test on DU-145, “– (GI% < 5%)”; with OVCAR-3, “– (GI% < 5%)”; in the test with HOP-92 it was 6.61%.
Turning to `COc1ccc(-c2nc3cc(Cl)c(Cl)cc3n2CC(=O)NN=Cc2cccc(O)c2)cc1` [Compound 10a, 2-(5,6-Dichloro-2-(4-methoxyphenyl)-1H-benzo[d]imidazol-1-yl)-N'-(3-hydroxybenzylidene)acetohydrazide], the inhibition at 10 µM with UACC-62 (Homo sapiens, read-out: GI%) came to 40%; with CCRF-CEM (Homo sapiens, read-out: GI%) it was 40.6%; in the test on HL-60(TB) (Homo sapiens, read-out: GI%), 42.6%; in the test with OVCAR-5 (Homo sapiens, read-out: GI%), 20.5%; in the test with CAKI-1 (Homo sapiens, read-out: GI%), 55%; in the test with MDA-MB-435 (Homo sapiens, read-out: GI%), 45.9%. The inhibition at 10 µM with SK-MEL-5 (Homo sapiens, read-out: GI%) was determined as 79.7%; in the test with BT-549 (Homo sapiens, read-out: GI%), 47.8%; with EKVX (Homo sapiens, read-out: GI%) it was 76.6%; in test [1], 46.9%; in the test with SNB-19 (Homo sapiens, read-out: GI%), 50.4%; in the test on OVCAR-4 (Homo sapiens, read-out: GI%), 68.1%. Also, the inhibition at 10 µM in the test on HT29 (Homo sapiens, HT-29, HT29, Colon cancer, read-out: GI%) is 41.2%; with TK-10 (Homo sapiens, read-out: GI%), 37.2%; in the test with NCI-H460 (Homo sapiens, read-out: GI%) it was 46.8%; in the test on DU-145 (Homo sapiens, read-out: GI%) it was 44.2%; in the test on OVCAR-3 (Homo sapiens, read-out: GI%), 36.6%; in the test on HOP-92 (Homo sapiens, read-out: GI%), 23.8%.
